Molecules are shown by their SMILES. ≈ marks a conversion by molar mass, not a printed value. Read-outs that look alike come from different tables or passages of the source.

Series [1] concerns M. abscessus ATCC 19977. As to the kind of experiment: MIC assay in 96-well plate format, wild-type strain. In kind it is cell-based, Mycobacterium abscessus. In a few lines: (§1)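 Two-fold, ten-point dilutions in 7H9 with 2% DMSO; mid-log culture diluted to OD600=0.1 (1×10^7 CFU/mL). Incubated 3 days at 37 °C, shaking 110 RPM; growth = Day 3 minus Day 0 OD600, expressed as percentage of drug-free growth and plotted against concentration. Two biological replicates.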

Series [2] deals with Δarr M. abscessus. In words: MIC assay, isogenic arr-deleted strain. The class given is cell-based, Mycobacterium abscessus. Conditions: for Δarr Mab MIC: arr-deleted strain, 90% growth inhibition. An outline of the steps:
as §1

Series [3] relates to M. abscessus Bamboo. As to the kind of experiment: Broth MBC90 (bMBC90). The class given is cell-based, Mycobacterium abscessus. The source says: Broth MIC, broth MBC90 (bMBC90), and caseum surrogate MBC90 ([…]) of clinically used antibiotics and of novel ADP-ribosylation-resistant rifabutin analogs against M. abscessus Bamboo have been evaluated.
In series [4] the test system is M. abscessus Bamboo. In words: MIC assay, clinical isolate Bamboo. The class given is cell-based, Mycobacterium abscessus.
Series [5] deals with M. abscessus Bamboo. In words: Caseum surrogate MBC90 (cMBC90) kill assay. As to conditions: for MBC: read-out: cMBC90. In kind it is cell-based, Mycobacterium abscessus.
Description: (§2) The surrogate matrix was generated as described previously from cultured THP-1 cells (ATCC TIB-202) (mBio, 2023, 14, e0059823). M. abscessus exponential cultures grown in Middlebrook 7H9 broth (Sigma Aldrich) (OD600 0.6-0.9) were spun down and resuspended in water to an OD600 of 7, 0.7, and 0.07. As described for the M. tuberculosis caseum surrogate assay (mnBio, 2023, 14, e0059823), the bacterial suspensions (at three different dilutions resulting in ˜10^9, 10^8, and 10^7 starting CFU/mL, represented by circle, square, and triangle indicators respectively) were added to the caseum surrogate in the ratio 2:1 (vol/wt), briefly homogenized with 1.4-mm zirconia beads, divided evenly into nine 1.5-mL microcentrifuge tubes, and incubated as standing cultures at 37° C. At the indicated time points, tubes were removed and used for CFU enumeration by plating on Middlebrook 7H11 agar (Sigma Aldrich). Separate tubes were used at each time point. To determine the kill curves, cultures with a starting CFU/mL of 10^8 were used (resulting in the middle curve with square indicators). Arrows indicate the time points when drugs were added and the end of the treatment. The experiment was repeated three times independently, yielding similar results. A representative example is shown. Dots and error bars represent means and standard deviations of three technical replicates, respectively.
FIGS. 29A-29M show the Dose-response kill curves against M. abscessus Bamboo in caseum surrogate. M. abscessus cultures were set up as described in the legend of FIG. 28. Bacterial cell suspensions were added to yield a starting CFU of 10^8/mL (FIG. 28, middle growth curve with square indicators). […] The shaded areas indicate drug concentration windows achieved in caseum in vivo. (Antimicrob. Agents Chemother., 2021, 65, e0050621; Antimicrob. Agents Chemother., 2022, 66, e0221221; PLoS Med., 2019, 16, e1002773; ACS Infect. Dis., 2016, 2, 251-267). The experiment was repeated twice independently, yielding similar results. A representative example is shown. Dots and error bars represent means and standard deviations of three technical replicates, respectively. Horizontal dotted lines indicate the cutoff for 1 log reduction in CFU compared to 10-day drug-free control culture. The cMBC90 values shown in Table 16 are the drug concentrations that reduce CFU by 90% relative to the CFU of drug-free controls at day 10. Since the cultures were in the stationary phase on day 5 when drug treatment started, the CFUs of the drug-free cultures at day 10 were similar to the CFUs of the drug-free cultures at day 5 (FIG. 28).
as §2, with “(doi: 10.1128/mbio.00598-23).” for “(mBio, 2023, 14, e0059823).”, “(doi: 10.1128/mbio.00598-23),” for “(mnBio, 2023, 14, e0059823),”, “CFU/mL)” for “CFU/mL, represented by circle, square, and triangle indicators respectively)”, “curves for the drugs,” for “curves,”, “used.” for “used (resulting in the middle curve with square indicators). Arrows indicate the time points when drugs were added and the end of the treatment.”, “results.” for “results. A representative example is shown. Dots and error bars represent means and standard deviations of three technical replicates, respectively.”
The experiment was repeated twice independently, yielding similar results. A representative example is shown. The cMBC90 values shown in Table 16 are the drug concentrations that reduce CFU by 90% relative to the CFU of drug-free controls at day 10. […]

Series [6] can be described thus: Mouse pharmacokinetics studies. In kind it is in vivo, CD-1 mice. An outline of the steps:
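Plasma from K2EDTA-collected blood analysed by LC-MS/MS with multiple-reaction monitoring in electrospray positive mode. Parameters derived by non-compartmental analysis.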

The nature of series [7]: Plasma protein binding assay (rapid equilibrium dialysis). The class given is in vitro ADME. In a few lines:
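Plasma was spiked to 10,000 ng/mL compound and dialysed against PBS by rapid equilibrium dialysis for 4 h at 37° C with shaking at 300 RPM. Plasma and buffer aliquots were matrix-matched 1:1 […] and quantified by LC-MS/MS.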

The test system of series [8] is CYP3A4.
Description: The threshold cycle (CT) was measured for each isoform cDNA by real time qRT-PCR. The mRNA level of each isoform was assessed by the relative quantifiation with reference gene (GAPDH) as the normalizer method. The normalized fold induction was calculated by 2^−ΔΔCT method, in which 0.1% DMSO was used as the reference (vehicle control). The induction potential of each test compound was analyzed by comparing its fold induction to a pre-determined cutoff value for each lot of hepatocytes. The hepatocytes lots used in this study were validated using 10 known inducers and 5 known non-inducers for each isozyme. A cutoff value is determined based on the validation study for each hepatocytes lot.
The test system of series [9] is Mycobacterium abscessus. In words: MIC against Mycobacterium abscessus (strain not given). The class given is cell-based. As to conditions: Table 22, read-out: MICMab.
Series [10] has as its system RFB-R1 M. abscessus. In words: microbe, parasite or virus in culture. In kind it is cell-based, Mycobacterium abscessus. Conditions: Mycobacteroides abscessus, read-out: RFB-R1 M. abscessus MIC.
[11] abbreviates: Mycobacteroides abscessus, 120 h, broth, 5 days.
The mark [12] stands for this setting: Mycobacteroides abscessus, broth, M. abscessus Bamboo, Table 16, read-out: MIC.
Setting [13] is: Mycobacteroides abscessus, 120 h.

For `CO[C@H]1/C=C/O[C@@]2(C)Oc3c(C)c(O)c4c(c3C2=O)C2=NC3(CCN(CC(C)C)CC3)NC2=C(NC(=O)/C(C)=C/C=C/[C@H](C)[C@H](O)[C@@H](C)[C@@H](O)[C@@H](C)[C@H](OC(=O)c2cncnc2)[C@@H]1C)C4=O` [5n, 25-O-(5-pyrimidinecarbonyl)-25-O-desacetyrifabutin], the MIC in series [1] (M. abscessus ATCC 19977, 90% growth inhibition, read-out: WT Mab MIC) is 18 nM (≈ 0.0164 µg/mL); in [4] (broth, M. abscessus Bamboo, Table 16, read-out: MIC) it was 0.03 µM (≈ 0.0273 µg/mL). Moreover, in [1] (WT MIC/Δarr strain MIC), the MIC ratio is 0.72. Further, the “Δarr Mab MIC” value in series [2] was determined as 25 nM. For the same compound, the MBC is listed as 0.13 µM (≈ 0.118 µg/mL) in series [3] (broth, 5 days) and 0.65 µM (≈ 0.592 µg/mL) in series [5] (caseum surrogate, 5 days, 90% CFU reduction vs drug-free control). Moreover, the cMBC90/bMBC90 in series [5] (5-day assays) was determined as 5.

For the compound `NCC[C@H](O)C(=O)N[C@@H]1C[C@H](N)[C@@H](O[C@H]2O[C@H](CN)[C@@H](O)[C@H](O)[C@H]2O)[C@H](O)[C@H]1O[C@H]1O[C@H](CO)[C@@H](O)[C@H](N)[C@H]1O` [Amikacin], the MBC in series [3] (setting [11]) amounted to 40 µM (≈ 23.4 µg/mL); in [5] (setting [13]), 12 µM (≈ 7.03 µg/mL). In series [4] (setting [12]), the MIC turned out to be 25 µM (≈ 14.6 µg/mL). The cMBC90/bMBC90 in series [5] (5-day assays) stood at 0.3.

Consider `COc1nc2ccc(Br)cc2cc1[C@@H](c1ccccc1)[C@@](O)(CCN(C)C)c1cccc2ccccc12` [Bedaquiline, bedaquiline], for which the MBC came out at 2 µM (≈ 1.11 µg/mL) in series [3] (Mycobacteroides abscessus, 240 h, assay extended to 10 days) and 67 µM (≈ 37.2 µg/mL) in series [5] (Mycobacteroides abscessus, 240 h, caseum surrogate, assay extended to 10 days). Also, the MIC in series [4] (setting [12]) amounted to 0.4 µM (≈ 0.222 µg/mL). In series [5] (10-day assays), this compound gave a cMBC90/bMBC90 of 33.5.

For `CO[C@@]1(NC(=O)Cc2cccs2)C(=O)N2C(C(=O)O)=C(COC(N)=O)CS[C@@H]21` [Cefoxitin, cefoxitin], the values for the MBC in [3] (setting [11]) and in [5] (setting [13]) were 45 µM (≈ 19.2 µg/mL) and 35 µM (≈ 15 µg/mL), respectively. For the same compound, the MIC in [4] (setting [12]) was 29 µM (≈ 12.4 µg/mL). The same compound displayed a cMBC90/bMBC90 in series [5] (5-day assays) of 0.78.

As to `CC(C)/N=c1\cc2n(-c3ccc(Cl)cc3)c3ccccc3nc-2cc1Nc1ccc(Cl)cc1` [Clofazimine, clofazimine], the MBC in series [3] (setting [11]) and in [5] (setting [13]) was more than 128 µM in each case. In addition, the MIC in series [4] (setting [12]) came out at 12.5 µM (≈ 5.92 µg/mL).

For `C[C@@H](O)[C@H]1C(=O)N2C(C(=O)O)=C(SCCN=CN)C[C@H]12` [Imipenem, imipenem], the MBC in series [3] (setting [11]) is 18 µM (≈ 5.39 µg/mL); in series [5] (setting [13]), 42 µM (≈ 12.6 µg/mL). Moreover, the MIC in series [4] (setting [12]) is 10 µM (≈ 2.99 µg/mL). This compound displayed a cMBC90/bMBC90 in series [5] (5-day assays) of 2.3.

`CC(=O)NC[C@H]1CN(c2ccc(N3CCOCC3)c(F)c2)C(=O)O1` [Linezolid, linezolid]: the results for the MBC in [3] (setting [11]) and in [5] (setting [13]) were 32 µM (≈ 10.8 µg/mL) and 512 µM (≈ 173 µg/mL), respectively. Also, the MIC in series [4] (setting [12]) was 25 µM (≈ 8.43 µg/mL). Moreover, the cMBC90/bMBC90 in series [5] (5-day assays) was found to be 16.

Regarding `COc1c(N2C[C@@H]3CCCN[C@@H]3C2)c(F)cc2c(=O)c(C(=O)O)cn(C3CC3)c12` [Moxifloxacin, moxifloxacin], the MBC in [3] (setting [11]) stood at 2 µM (≈ 0.803 µg/mL); in [5] (setting [13]) it was 8 µM (≈ 3.21 µg/mL). The MIC in [4] (setting [12]) amounted to 6 µM (≈ 2.41 µg/mL). The cMBC90/bMBC90 in series [5] (5-day assays) is reported as 4.

Take `CN(C)c1cc(NC(=O)CNC(C)(C)C)c(O)c2c1C[C@H]1C[C@H]3[C@H](N(C)C)C(O)=C(C(N)=O)C(=O)[C@@]3(O)C(O)=C1C2=O` [Tigecycline, tigecycline]: the MBC in [3] (setting [11]) and in series [5] (setting [13]) was 8 µM (≈ 4.69 µg/mL) each time. The MIC in series [4] (Mycobacteroides abscessus) came out at 12.5 µM (≈ 7.32 µg/mL). In addition, the cMBC90/bMBC90 in series [5] (5-day assays) is given as 1.

In turn, `CO[C@H]1/C=C/O[C@@]2(C)Oc3c(C)c(O)c4c(c3C2=O)C2=NC3(CCN(CC(C)C)CC3)NC2=C(NC(=O)/C(C)=C/C=C/[C@H](C)[C@H](O)[C@@H](C)[C@@H](O)[C@@H](C)[C@H](OC(=O)NC2CCN(Cc3ccccc3)CC2)[C@@H]1C)C4=O` [UMN15] displayed a ƒAUC/MIC in series [6] (Table 18) of 0.8. In addition, in series [6] (mouse, in vivo), the CL was 6.40 mL/kg/min, the F is 35% and the Vd was 5.92 L/kg. This compound displayed an AUCp.o. in series [6] (mouse, in vivo, po) of 5658 ng·h/mL. Moreover, in [1] (Table 10), the MICWT is 0.013 µM. Moreover, the MIC in series [1] (Table 14, carbamate analogs, read-out: WT Mab MIC) is given as 13 nM (≈ 0.0133 µg/mL). The compound also yielded an MICΔorr in series [2] (Table 10) of 0.028 µM. In [7], this compound came in with a ƒu of 0.2%. Moreover, the plasma unbound fraction in series [7] (plasma) is 0.19%. Also, the “CYP3A4 gene fold-induction at 10 μM” value in series [8] was determined as 1.2. Besides, in series [9], the MIC was 0.013 µM (≈ 0.0133 µg/mL).

For the compound `CO[C@H]1/C=C/O[C@@]2(C)Oc3c(C)c(O)c4c(O)c(c(/C=N/N5CCN(C)CC5)c(O)c4c3C2=O)NC(=O)/C(C)=C\C=C\[C@H](C)[C@H](O)[C@@H](C)[C@@H](O)[C@@H](C)[C@H](OC(C)=O)[C@@H]1C` [rifampicin, reference compound], the MIC is 5300 nM (≈ 4.36 µg/mL) in series [1] (Mycobacteroides abscessus, ATCC19977, read-out: WT Mab MIC); more than 100 µM in series [10]; 5.3 µM (≈ 4.36 µg/mL) in [9] (Mycobacteroides abscessus, 72 h). Besides, in series [2], the “Δarr Mab MIC” value was determined as 260 nM.
